These compounds were tested against Human Factor D (Homo sapiens (Human), UniProt P00746) (assay: Human Factor D Assay). Details: Table 6; Factor D 80 nM, substrate Z-L-Lys-SBz; read-out: IC50.
Sequence of Human Factor D (P00746 26-253): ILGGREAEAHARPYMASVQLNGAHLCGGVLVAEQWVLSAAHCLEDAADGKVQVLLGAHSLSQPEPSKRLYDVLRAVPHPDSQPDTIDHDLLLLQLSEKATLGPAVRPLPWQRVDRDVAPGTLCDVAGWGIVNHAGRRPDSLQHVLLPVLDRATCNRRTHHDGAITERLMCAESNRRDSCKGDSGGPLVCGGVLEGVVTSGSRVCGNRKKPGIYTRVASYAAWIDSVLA
Format: biochemical
How it was run: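 Thioester substrate Z-L-Lys-SBz (100 μM) with Ellman's reagent DTNB (100 μM) reports activity of 80 nM human serum-derived enzyme, kinetically at 405 nm over 30 min. Compound preincubated 5 min, room temperature, pH 7.5 Tris/1 M NaCl; IC50 by nonlinear fit of rates.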
With `C=CCOCc1ccc(Br)nc1NC(=O)[C@@H]1C[C@@]2(C=C)C[C@H]2N1C(=O)Cn1nc(C(C)=O)c2cc(-c3cnc(C)nc3)ccc21` [Compound 134, (1R,3S,5R)-2-(2-(3-Acetyl-5-(2-methylpyrimidin-5-yl)-1H-indazol-1-yl)acetyl)-N-(3-((allyloxy)methyl)-6-bromopyridin-2-yl)-5-vinyl-2-azabicyclo[3.1.0]hexane-3-carboxamide] the IC50 was less than 1000 nM.
Compound `CC(=O)c1nn(CC(=O)N2[C@H](C(=O)Nc3nc(Cl)ccc3CN(C)C)C[C@@]3(C)C[C@@H]23)c2ccc(-c3cnc(C)nc3)cc12` [Compound 135, (1R,3S,5R)-2-(2-(3-Acetyl-5-(2-methylpyrimidin-5-yl)-1H-indazol-1-yl)acetyl)-N-(6-chloro-3-((dimethylamino)methyl)pyridin-2-yl)-5-methyl-2-azabicyclo[3.1.0]hexane-3-carboxamide] has an IC50 of less than 1000 nM.
`CC(=O)c1nn(CC(=O)N2[C@H](C(=O)Nc3nc(Br)ccc3CN(C)C)C[C@@]3(C)C[C@@H]23)c2c(C)cc(-c3cnc(C)nc3)cc12` [Compound 136, (1R,3S,5R)-2-(2-(3-Acetyl-7-methyl-5-(2-methylpyrimidin-5-yl)-1H-indazol-1-yl)acetyl)-N-(6-bromo-3-((dimethylamino)methyl)pyridin-2-yl)-5-methyl-2-azabicyclo[3.1.0]hexane-3-carboxamide] showed an IC50 of less than 1000 nM.
`CC(=O)c1nn(CC(=O)N2[C@H](C(=O)Nc3nc(Cl)ccc3CN(C)C)C[C@@]3(C)C[C@@H]23)c2c(C)cc(-c3cnc(C)nc3)cc12` [Compound 137, (1R,3S,5R)-2-(2-(3-Acetyl-7-methyl-5-(2-methylpyrimidin-5-yl)-1H-indazol-1-yl)acetyl)-N-(6-chloro-3-((dimethylamino)methyl)pyridin-2-yl)-5-methyl-2-azabicyclo[3.1.0]hexane-3-carboxamide] gave an IC50 of less than 1000 nM.
Compound `CC(=O)c1nn(CC(=O)N2[C@H](C(=O)Nc3nc(Br)ccc3CN3CCOCC3)C[C@@]3(C)C[C@@H]23)c2ccc(-c3cnc(C)nc3)cc12` [Compound 138, (1R,3S,5R)-2-(2-(3-Acetyl-5-(2-methylpyrimidin-5-yl)-1H-indazol-1-yl)acetyl)-N-(6-bromo-3-(morpholinomethyl)pyridin-2-yl)-5-methyl-2-azabicyclo[3.1.0]hexane-3-carboxamide] has an IC50 of less than 1000 nM.
Work on `CC(=O)c1nn(CC(=O)N2[C@H](C(=O)Nc3nc(Cl)ccc3CN3CCOCC3)C[C@@]3(C)C[C@@H]23)c2ccc(-c3cnc(C)nc3)cc12` [Compound 139, (1R,3S,5R)-2-(2-(3-Acetyl-5-(2-methylpyrimidin-5-yl)-1H-indazol-1-yl)acetyl)-N-(6-chloro-3-(morpholinomethyl)pyridin-2-yl)-5-methyl-2-azabicyclo[3.1.0]hexane-3-carboxamide] yielded an IC50 of less than 1000 nM.
`Cc1ncc(-c2cc(C)c3c(c2)c(C(C)O)nn3CC(=O)N2[C@H](C(=O)Nc3nc(Br)ccc3C)C[C@@]3(C)C[C@@H]23)cn1` (stereo partly shown) [Compound 140] was tested, and the IC50 was less than 1000 nM.
In the case of `CC(=O)c1nn(CC(=O)N2C[C@H]3C[C@H]3[C@H]2C(=O)Nc2nc(Br)ccc2C)c2cnc(-c3cnc(C)nc3)cc12` [Compound 141, (1R,2S,5S)-3-(2-(3-Acetyl-5-(2-methylpyrimidin-5-yl)-1H-pyrazolo[3,4-c]pyridin-1-yl)acetyl)-N-(6-bromo-3-methylpyridin-2-yl)-3-azabicyclo[3.1.0]hexane-2-carboxamide], the IC50 is reported as less than 1000 nM.
`CC(=O)c1nn(CC(=O)N2[C@H](C(=O)Nc3nc(Br)ccc3C)C[C@@]3(CN4CC5(CCCC5)C4)C[C@@H]23)c2ccc(-c3cnc(C)nc3)cc12` [Compound 142, (1R,3S,5R)-5-(2-Azaspiro[3.4]octan-2-ylmethyl)-2-(2-(3-acetyl-5-(2-methylpyrimidin-5-yl)-1H-indazol-1-yl)acetyl)-N-(6-bromo-3-methylpyridin-2-yl)-2-azabicyclo[3.1.0]hexane-3-carboxamide] was tested, and the IC50 was less than 1000 nM.
`CC(=O)c1nn(CC(=O)N2[C@H](C(=O)Nc3nc(Br)ccc3C)C[C@@]3(CN(C)C)C[C@@H]23)c2c(C#N)cc(-c3cnc(C)nc3)cc12` [Compound 143, (1R,3S,5R)-2-(2-(3-Acetyl-7-cyano-5-(2-methylpyrimidin-5-yl)-1H-indazol-1-yl)acetyl)-N-(6-bromo-3-methylpyridin-2-yl)-5-((dimethylamino)methyl)-2-azabicyclo[3.1.0]hexane-3-carboxamide] showed an IC50 of less than 1000 nM.
With `CC(=O)c1nn(CC(=O)N2[C@H]3C[C@@]3(CN(C)C)C[C@H]2C(=O)Nc2nc(Br)ccc2C)c2c(C#N)cc(-c3cnc(C)nc3)cc12` [Compound 144, (1S,3S)-2-(2-(3-acetyl-7-cyano-5-(2-methylpyrimidin-5-yl)-1H-indazol-1-yl)acetyl)-N-(6-bromo-3-methylpyridin-2-yl)-5-((dimethylamino)methyl)-2-azabicyclo[3.1.0]hexane-3-carboxamide] the IC50 was 1000 to 10000 nM.
With `Cc1ncc(-c2ccc3c(c(C(N)=O)nn3CC(=O)N3[C@H](C(=O)Nc4nc(Br)ccc4C)C[C@@]4(C)C[C@@H]34)c2F)cn1` [Compound 145, 1-(2-((1R,3S,5R)-3-((6-Bromo-3-methylpyridin-2-yl)carbamoyl)-5-methyl-2-azabicyclo[3.1.0]hexan-2-yl)-2-oxoethyl)-4-fluoro-5-(2-methylpyrimidin-5-yl)-1H-indazole-3-carboxamide] the IC50 was less than 1000 nM.
`CC(=O)c1nn(CC(=O)N2[C@H](C(=O)Nc3nc(Br)ccc3C)C[C@@]3(C)C[C@@H]23)c2c(C(F)F)cc(-c3cnc(C)nc3)cc12` [Compound 146, (1R,3S,5R)-2-(2-(3-Acetyl-7-(difluoromethyl)-5-(2-methylpyrimidin-5-yl)-1H-indazol-1-yl)acetyl)-N-(6-bromo-3-methylpyridin-2-yl)-5-methyl-2-azabicyclo[3.1.0]hexane-3-carboxamide] showed an IC50 of less than 1000 nM.
In the case of `CC(=O)c1nn(CC(=O)N2[C@H](C(=O)Nc3nc(Br)ccc3C)C[C@@]3(C)C[C@@H]23)c2c(F)cc(-c3cnc(C)nc3)cc12` [Compound 147, (1R,3S,5R)-2-(2-(3-Acetyl-7-fluoro-5-(2-methylpyrimidin-5-yl)-1H-indazol-1-yl)acetyl)-N-(6-bromo-3-methylpyridin-2-yl)-5-methyl-2-azabicyclo[3.1.0]hexane-3-carboxamide], the IC50 is reported as less than 1000 nM.
For `CC(=O)c1nn(CC(=O)N2[C@H](C(=O)Nc3nc(Br)ccc3C)C[C@@]3(C)C[C@@H]23)c2ccc(-c3cnc(CC(=O)N(C)C)nc3)cc12` [Compound 148, (1R,3S,5R)-2-(2-(3-Acetyl-5-(2-(2-(dimethylamino)-2-oxoethyl)pyrimidin-5-yl)-1H-indazol-1-yl)acetyl)-N-(6-bromo-3-methylpyridin-2-yl)-5-methyl-2-azabicyclo[3.1.0]hexane-3-carboxamide], the IC50 was less than 1000 nM.
In the case of `CC(=O)c1nn(CC(=O)N2[C@H](C(=O)Nc3nc(Br)ccc3C)C[C@@]3(CN4CCC4)C[C@@H]23)c2c(C)cc(-c3cnc(C)nc3)cc12` [Compound 149, (1R,3S,5R)-2-(2-(3-Acetyl-7-methyl-5-(2-methylpyrimidin-5-yl)-1H-indazol-1-yl)acetyl)-5-(azetidin-1-ylmethyl)-N-(6-bromo-3-methylpyridin-2-yl)-2-azabicyclo[3.1.0]hexane-3-carboxamide], the IC50 is reported as less than 1000 nM.
For `CC(=O)c1nn(CC(=O)N2[C@H](C(=O)Nc3nc(Br)ccc3C)C[C@@]3(CN4CC(F)(F)C4)C[C@@H]23)c2c(C)cc(-c3cnc(C)nc3)cc12` [Compound 150, (1R,3S,5R)-2-(2-(3-Acetyl-7-methyl-5-(2-methylpyrimidin-5-yl)-1H-indazol-1-yl)acetyl)-N-(6-bromo-3-methylpyridin-2-yl)-5-((3,3-difluoroazetidin-1-yl)methyl)-2-azabicyclo[3.1.0]hexane-3-carboxamide], the IC50 was less than 1000 nM.
In the case of `CC(=O)c1nn(CC(=O)N2[C@H](C(=O)Nc3nc(Br)ccc3C)C[C@@]3(CNC4CC4)C[C@@H]23)c2ccc(-c3cnc(C)nc3)cc12` [Compound 151, (1R,3S,5R)-2-(2-(3-Acetyl-5-(2-methylpyrimidin-5-yl)-1H-indazol-1-yl)acetyl)-N-(6-bromo-3-methylpyridin-2-yl)-5-((cyclopropylamino)methyl)-2-azabicyclo[3.1.0]hexane-3-carboxamide], the IC50 is reported as less than 1000 nM.
For `COCc1ccc(Br)nc1NC(=O)[C@@H]1C[C@@]2(COC)C[C@H]2N1C(=O)Cn1nc(C(C)=O)c2cc(-c3cnc(C)nc3)ccc21` [Compound 152, (1R,3S,5S)-2-(2-(3-Acetyl-5-(2-methylpyrimidin-5-yl)-1H-indazol-1-yl)acetyl)-N-(6-bromo-3-(methoxymethyl)pyridin-2-yl)-5-(methoxymethyl)-2-azabicyclo[3.1.0]hexane-3-carboxamide], the IC50 was less than 1000 nM.
`COCc1ccc(Br)nc1NC(=O)[C@@H]1C[C@@]2(CNC(=O)[C@@H](NC(=O)OC)C(C)C)C[C@H]2N1C(=O)Cn1nc(C(C)=O)c2cc(-c3cnc(C)nc3)ccc21` [Compound 153, Methyl ((S)-1-((((1R,3S,5R)-2-(2-(3-acetyl-5-(2-methylpyrimidin-5-yl)-1H-indazol-1-yl)acetyl)-3-((6-bromo-3-(methoxymethyl)pyridin-2-yl)carbamoyl)-2-azabicyclo[3.1.0]hexan-5-yl)methyl)amino)-3-methyl-1-oxobutan-2-yl)carbamate] gave an IC50 of less than 1000 nM.
`C=CCOC[C@@]12C[C@@H](C(=O)Nc3nc(Br)ccc3C)N(C(=O)Cn3nc(C(C)=O)c4cc(-c5cnc(C)nc5)cc(CC=C)c43)[C@@H]1C2` [Compound 154, (1R,3S,5S)-2-(2-(3-acetyl-7-allyl-5-(2-methylpyrimidin-5-yl)-1H-indazol-1-yl)acetyl)-5-((allyloxy)methyl)-N-(6-bromo-3-methylpyridin-2-yl)-2-azabicyclo[3.1.0]hexane-3-carboxamide] showed an IC50 of less than 1000 nM.
`CC(=O)c1nn(CC(=O)N2[C@H](C(=O)Nc3nc(Br)ccc3C)C[C@@]3(CN(C)C)C[C@@H]23)c2ccc(-c3cnc(C)nc3)c(F)c12` [Compound 155, (1R,3S,5R)-2-(2-(3-Acetyl-4-fluoro-5-(2-methylpyrimidin-5-yl)-1H-indazol-1-yl)acetyl)-N-(6-bromo-3-methylpyridin-2-yl)-5-((dimethylamino)methyl)-2-azabicyclo[3.1.0]hexane-3-carboxamide] was tested, and the IC50 was less than 1000 nM.
